From ChEMBL document CHEMBL5143607, “Discovery and structure-activity relationships of a novel oxazolidinone class of bacterial type II topoisomerase inhibitors” (Bioorg Med Chem Lett, 2022)
≈ marks a conversion by molar mass, not a printed value.

What was measured:
Escherichia coli [1] = experiment: Antibacterial activity against Escherichia coli W4573 assessed as bacterial growth inhibition by CLSI protocol based assay; assay type: functional
DNA gyrase = DNA gyrase (Escherichia coli, UniProt P0AES4+P0AES6); experiment: Inhibition of Escherichia coli DNA gyrase supercoiling activity; assay type: protein-complex assay
[2] = Kinetic solubility of compound; assay type: physicochemical; settings: read-out: Kinetic_solubility
Acinetobacter baumannii [3] = experiment: Antibacterial activity against Acinetobacter baumannii NCTC 13420 assessed as bacterial growth inhibition by CLSI protocol based assay; assay type: functional
[4] = target: DNA topoisomerase 2-alpha (Homo sapiens, UniProt P11388); experiment: Inhibition of human topoisomerase 2 assessed as reduction in decatenation
DNA topoisomerase 2-alpha, sequence (P11388 whole entry): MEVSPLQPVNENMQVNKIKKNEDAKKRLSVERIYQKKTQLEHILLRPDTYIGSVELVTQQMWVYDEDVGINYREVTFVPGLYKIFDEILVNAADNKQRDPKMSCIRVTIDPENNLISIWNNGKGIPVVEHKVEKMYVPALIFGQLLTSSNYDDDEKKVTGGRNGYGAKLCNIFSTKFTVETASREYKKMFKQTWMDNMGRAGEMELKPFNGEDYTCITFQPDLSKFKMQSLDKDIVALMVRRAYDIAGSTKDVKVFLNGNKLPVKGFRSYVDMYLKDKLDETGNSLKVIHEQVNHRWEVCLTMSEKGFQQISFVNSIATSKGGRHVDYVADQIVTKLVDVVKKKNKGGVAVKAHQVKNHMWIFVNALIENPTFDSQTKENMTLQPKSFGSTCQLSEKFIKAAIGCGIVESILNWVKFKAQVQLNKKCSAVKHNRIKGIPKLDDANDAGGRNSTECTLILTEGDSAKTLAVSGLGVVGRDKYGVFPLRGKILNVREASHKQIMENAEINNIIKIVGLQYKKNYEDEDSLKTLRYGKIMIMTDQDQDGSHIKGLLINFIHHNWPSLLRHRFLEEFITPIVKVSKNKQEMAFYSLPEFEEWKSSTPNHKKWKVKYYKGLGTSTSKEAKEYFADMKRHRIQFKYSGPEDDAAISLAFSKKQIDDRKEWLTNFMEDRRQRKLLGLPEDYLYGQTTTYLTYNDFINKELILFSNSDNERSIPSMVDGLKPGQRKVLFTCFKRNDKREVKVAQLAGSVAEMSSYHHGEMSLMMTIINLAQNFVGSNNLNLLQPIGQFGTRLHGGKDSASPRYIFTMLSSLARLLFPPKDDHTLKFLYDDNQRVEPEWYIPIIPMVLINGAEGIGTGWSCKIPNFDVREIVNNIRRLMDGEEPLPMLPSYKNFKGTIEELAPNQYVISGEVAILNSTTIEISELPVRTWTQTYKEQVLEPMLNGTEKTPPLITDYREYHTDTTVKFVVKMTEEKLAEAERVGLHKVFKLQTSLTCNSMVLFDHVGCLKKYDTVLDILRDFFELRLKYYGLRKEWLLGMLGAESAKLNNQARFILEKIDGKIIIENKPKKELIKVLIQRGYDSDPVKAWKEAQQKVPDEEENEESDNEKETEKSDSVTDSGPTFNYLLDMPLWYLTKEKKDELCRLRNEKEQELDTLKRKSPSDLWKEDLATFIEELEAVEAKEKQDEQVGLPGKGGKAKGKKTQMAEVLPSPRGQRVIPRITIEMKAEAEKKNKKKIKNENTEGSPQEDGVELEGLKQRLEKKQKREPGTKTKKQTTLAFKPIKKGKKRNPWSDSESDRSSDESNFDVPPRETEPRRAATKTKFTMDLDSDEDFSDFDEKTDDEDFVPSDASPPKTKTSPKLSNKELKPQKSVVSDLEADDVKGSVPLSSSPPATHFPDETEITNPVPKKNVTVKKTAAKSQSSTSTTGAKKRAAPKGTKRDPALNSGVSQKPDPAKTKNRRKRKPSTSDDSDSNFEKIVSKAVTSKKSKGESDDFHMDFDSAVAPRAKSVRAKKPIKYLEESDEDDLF

Pseudomonas aeruginosa [5] = experiment: Antibacterial activity against Pseudomonas aeruginosa ATCC 27853 assessed as bacterial growth inhibition by CLSI protocol based assay; assay type: functional
Staphylococcus aureus = experiment: Antibacterial activity against Staphylococcus aureus ATCC 29213 assessed as bacterial growth inhibition by CLSI protocol based assay; assay type: functional
[6] = Intrinsic clearance in human liver microsomes in presence of NADPH and measured upto 45 mins; assay type: ADME, Microsome; settings: read-out: CLH
Escherichia coli [7] = experiment: Resistance development in Escherichia coli ATCC25922 assessed as spontaneous resistance frequency at 4 times MIC by resistance development assay; assay type: functional
[8] = Plasma protein binding in mouse assessed as free fraction by equilibrium dialysis assay; assay type: ADME, cell-free
[9] = Lipophilicity, logD of the compound by shake flask assay; assay type: physicochemical; settings: octanol/water
Klebsiella pneumoniae [10] = experiment: Antibacterial activity against Klebsiella pneumoniae ATCC 700603 assessed as bacterial growth inhibition by CLSI protocol based assay; assay type: functional
[11] = Cytotoxicity against human HepG2 cells assessed as reduction in cell viability for 24 hrs by Celltiter-Glo assay; assay type: toxicity, cell-based
Escherichia coli [12] = experiment: Antibacterial activity against Escherichia coli N43 assessed as bacterial growth inhibition by CLSI protocol based assay; assay type: functional
[13] = Inhibition of Escherichia coli topoisomerase 4 assessed as reduction in decatenation
[14] = target: Voltage-gated inwardly rectifying potassium channel KCNH2 (Homo sapiens, UniProt Q12809); experiment: Inhibition of human ERG by Ionworks electrophysiology assay; assay type: toxicity
Voltage-gated inwardly rectifying potassium channel KCNH2, sequence (Q12809 whole entry): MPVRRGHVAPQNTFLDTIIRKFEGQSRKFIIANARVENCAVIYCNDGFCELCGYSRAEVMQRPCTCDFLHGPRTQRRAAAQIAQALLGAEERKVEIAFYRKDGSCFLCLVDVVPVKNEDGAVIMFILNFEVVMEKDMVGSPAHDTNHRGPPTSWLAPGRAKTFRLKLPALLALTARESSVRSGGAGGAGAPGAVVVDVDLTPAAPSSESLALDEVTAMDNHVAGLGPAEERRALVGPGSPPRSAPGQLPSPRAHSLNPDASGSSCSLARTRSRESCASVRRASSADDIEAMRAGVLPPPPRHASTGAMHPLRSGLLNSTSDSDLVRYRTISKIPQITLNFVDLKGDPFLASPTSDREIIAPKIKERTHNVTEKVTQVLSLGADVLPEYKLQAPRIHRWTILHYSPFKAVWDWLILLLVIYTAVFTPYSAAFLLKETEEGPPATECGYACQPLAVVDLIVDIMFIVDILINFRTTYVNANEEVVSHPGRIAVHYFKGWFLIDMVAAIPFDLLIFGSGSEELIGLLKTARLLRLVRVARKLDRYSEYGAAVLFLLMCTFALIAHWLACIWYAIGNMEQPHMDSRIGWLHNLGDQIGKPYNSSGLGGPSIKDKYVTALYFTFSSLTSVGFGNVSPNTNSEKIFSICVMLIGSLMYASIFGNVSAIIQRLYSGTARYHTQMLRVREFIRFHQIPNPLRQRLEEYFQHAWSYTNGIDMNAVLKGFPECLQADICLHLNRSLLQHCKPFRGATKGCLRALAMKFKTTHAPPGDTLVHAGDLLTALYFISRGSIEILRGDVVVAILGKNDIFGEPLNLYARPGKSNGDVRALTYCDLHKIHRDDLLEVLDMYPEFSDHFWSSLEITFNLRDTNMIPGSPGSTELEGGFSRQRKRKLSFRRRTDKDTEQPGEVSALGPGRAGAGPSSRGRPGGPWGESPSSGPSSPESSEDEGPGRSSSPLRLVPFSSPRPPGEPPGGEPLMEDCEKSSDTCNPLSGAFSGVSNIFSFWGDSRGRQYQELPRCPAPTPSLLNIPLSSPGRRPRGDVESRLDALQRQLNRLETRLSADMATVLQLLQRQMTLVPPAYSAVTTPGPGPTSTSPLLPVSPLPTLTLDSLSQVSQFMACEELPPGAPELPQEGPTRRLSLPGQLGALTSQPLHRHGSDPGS

Escherichia coli [15] = experiment: Antibacterial activity against Escherichia coli ATCC25922 assessed as bacterial growth inhibition by CLSI protocol based assay; assay type: functional
[16] = Intrinsic clearance in mouse liver microsomes in presence of NADPH and measured upto 45 mins; assay type: ADME, Microsome; settings: read-out: CLH
[17] = Protein binding in human plasma by equilibrium dialysis assay; assay type: ADME, cell-free; settings: read-out: PPB (converted)
Acinetobacter baumannii [18] = experiment: In vivo antibacterial activity against multidrug resistant Acinetobacter baumannii NCTC 13420 infected in mouse thigh infection model assessed as log change in bacterial burden at 60 mg/kg, sc administered at 1 hr post infection and measured after 8 hrs relative to control; assay type: functional
Acinetobacter baumannii [19] = experiment: In vivo antibacterial activity against multidrug resistant Acinetobacter baumannii NCTC 13420 infected in mouse thigh infection model assessed in reduction in bacterial burden at 45 mg/kg, sc administered at 1 hr post infection and measured after 8 hrs (reference value: 5.4 log10CFU/g); assay type: functional
Pseudomonas aeruginosa [20] = experiment: Antibacterial activity against Pseudomonas aeruginosa clinical isolate 42 assessed as bacterial growth inhibition by CLSI protocol based assay; assay type: functional
[21] = Protein binding in mouse plasma by equilibrium dialysis assay; assay type: ADME, cell-free
Enterobacter cloacae = experiment: Antibacterial activity against Enterobacter cloacae clinical isolate 41 assessed as bacterial growth inhibition by CLSI protocol based assay; assay type: functional
Acinetobacter baumannii [22] = experiment: In vivo antibacterial activity against multidrug resistant Acinetobacter baumannii NCTC 13420 infected in mouse thigh infection model assessed as log change in bacterial burden at 120 mg/kg, sc administered at 1 hr post infection and measured after 8 hrs relative to control; assay type: functional
Acinetobacter baumannii [23] = experiment: In vivo antibacterial activity against multidrug resistant Acinetobacter baumannii NCTC 13420 infected in mouse thigh infection model assessed in reduction in bacterial burden at 30 mg/kg, sc administered at 1 hr post infection and measured after 8 hrs (reference value: 5.4 log10CFU/g); assay type: functional
Klebsiella pneumoniae [24] = experiment: Antibacterial activity against Klebsiella pneumoniae clinical isolate 42 assessed as bacterial growth inhibition by CLSI protocol based assay; assay type: functional
Acinetobacter baumannii [25] = experiment: In vivo antibacterial activity against multidrug resistant Acinetobacter baumannii NCTC 13420 infected in mouse thigh infection model assessed in reduction in bacterial burden at 60 mg/kg, sc administered at 1 hr post infection and measured after 8 hrs (reference value: 5.4 log10CFU/g); assay type: functional
Escherichia coli [26] = experiment: Antibacterial activity against Escherichia coli clinical isolate 42 assessed as bacterial growth inhibition by CLSI protocol based assay; assay type: functional
Acinetobacter baumannii [27] = experiment: In vivo antibacterial activity against multidrug resistant Acinetobacter baumannii NCTC 13420 infected in mouse thigh infection model assessed as log change in bacterial burden at 30 mg/kg, sc administered at 1 hr post infection and measured after 8 hrs relative to control; assay type: functional
Acinetobacter baumannii [28] = experiment: Antibacterial activity against […] Acinetobacter baumannii clinical isolate 43 assessed as bacterial growth inhibition by CLSI protocol based assay; assay type: functional
Acinetobacter baumannii [29] = experiment: In vivo antibacterial activity against multidrug resistant Acinetobacter baumannii NCTC 13420 infected in mouse thigh infection model assessed in reduction in bacterial burden at 120 mg/kg, sc administered at 1 hr post infection and measured after 8 hrs (reference value: 5.4 log10CFU/g); assay type: functional
Acinetobacter baumannii [30] = experiment: In vivo antibacterial activity against multidrug resistant Acinetobacter baumannii NCTC 13420 infected in mouse thigh infection model assessed as log change in bacterial burden at 45 mg/kg, sc administered at 1 hr post infection and measured after 8 hrs relative to control; assay type: functional
Acinetobacter baumannii [31] = experiment: In vivo antibacterial activity against multidrug resistant Acinetobacter baumannii NCTC 13420 infected in mouse thigh infection model assessed as log change in bacterial burden at 20 mg/kg, iv administered at 1 hr post infection and measured after 8 hrs relative to control; assay type: functional
Acinetobacter baumannii [32] = experiment: In vivo antibacterial activity against multidrug resistant Acinetobacter baumannii NCTC 13420 infected in mouse thigh infection model assessed in reduction in bacterial burden at 20 mg/kg, iv administered at 1 hr post infection and measured after 8 hrs (reference value: 5.4 log10CFU/g); assay type: functional

SMILES | MIC (Escherichia coli [1]) [µg/mL] | IC50 (DNA gyrase) [nM] | solubility kinetic [2] [µM] | MIC (Acinetobacter baumannii [3]) [µg/mL] | IC50 [4] [nM] | MIC (Pseudomonas aeruginosa [5]) [µg/mL] | MIC (Staphylococcus aureus) [µg/mL] | Activity (Escherichia coli [7]) | logD [9] | MIC (Klebsiella pneumoniae [10]) [µg/mL] | IC50 at 24 h [11] [µg/mL] | MIC (Escherichia coli [12]) [µg/mL] | IC50 [13] [nM] | IC50 [14] [nM] | MIC (Escherichia coli [15]) [µg/mL] | MIC90 (Pseudomonas aeruginosa [20]) [µg/mL] | MIC90 (Enterobacter cloacae) [µg/mL] | MIC90 (Klebsiella pneumoniae [24]) [µg/mL] | MIC90 (Escherichia coli [26]) [µg/mL] | MIC90 (Acinetobacter baumannii [28]) [µg/mL] | also measured
N#Cc1ccc2ccc(=O)n(CCN[C@H]3CC[C@H]4[C@H](C3)OC(=O)N4c3ccc4c(n3)NC(=O)CO4)c2c1 | 0.03 (≈ 0.0599 µM) | 30 | 62 (≈ 31 µg/mL) | 0.25 (≈ 0.499 µM) | 72800 | 2 (≈ 4 µM) | 0.03 (≈ 0.0599 µM) | <7.1 10^-9No_unit | 1.51 | 2 (≈ 4 µM) | > 128 | ≤ 0.002 | 230 | > 100000 | 0.25 (≈ 0.499 µM) | – | – | – | – | – | microsomal CLint [6]: 59 µL/min/mg; fraction unbound [8]: > 0.3; microsomal CLint [16]: 125 µL/min/mg
COc1ccc2ccc(=O)n(CCN[C@H]3CC[C@H]4[C@H](C3)OC(=O)N4c3ccc4c(n3)NC(=O)CO4)c2n1 | 0.12 (≈ 0.237 µM) | 55 | 76 (≈ 38.5 µg/mL) | 0.03 (≈ 0.0592 µM) | 14400 | 1 (≈ 1.97 µM) | 0.008 (≈ 0.0158 µM) | <2.4 10^-9No_unit | 1.95 | 4 (≈ 7.9 µM) | > 64 | < 0.008 | 10 | 5000 | 0.06 (≈ 0.118 µM) | 4 (≈ 7.9 µM) | 4 (≈ 7.9 µM) | 4 (≈ 7.9 µM) | 1 (≈ 1.97 µM) | 0.5 (≈ 0.987 µM) | fraction unbound [17]: 0.856; Activity (Acinetobacter baumannii [18]): -1 log10CFU/g; Activity (Acinetobacter baumannii [19]): 6.6 log10CFU/g; PPB [21]: 15.8%; microsomal CLint [6]: 110 µL/min/mg; Fu [8]: 15%; Activity (Acinetobacter baumannii [22]): -1.5 log10CFU/g; Activity (Acinetobacter baumannii [23]): 7.1 log10CFU/g; Activity (Acinetobacter baumannii [25]): 4.4 log10CFU/g; Activity (Acinetobacter baumannii [27]): 1.7 log10CFU/g; microsomal CLint [16]: 264 µL/min/mg; Activity (Acinetobacter baumannii [29]): 3.9 log10CFU/g; Activity (Acinetobacter baumannii [30]): 1.2 log10CFU/g
O=c1ccc2ncc(=O)n3c2n1C[C@H]3CN1CCC(NCc2cc3c(cn2)OCCC3)CC1 [GEPOTIDACIN] | 0.5 (≈ 1.11 µM) | – | – | 16 (≈ 35.7 µM) | 55200 | 2 (≈ 4.46 µM) | 0.5 (≈ 1.11 µM) | <2 10^-8No_unit | -0.63 | 16 (≈ 35.7 µM) | > 128 | 0.015 (≈ 0.0334 µM) | 35 | > 100000 | 0.03 (≈ 0.0669 µM) | 16 (≈ 35.7 µM) | 16 (≈ 35.7 µM) | 16 (≈ 35.7 µM) | 4 (≈ 8.92 µM) | 32 (≈ 71.3 µM) | fraction unbound [17]: < 0.7; fraction unbound ([21]; read-out: PPB (converted)): < 0.7
C[C@H]1COc2c(N3CCN(C)CC3)c(F)cc3c(=O)c(C(=O)O)cn1c23.C[C@H]1COc2c(N3CCN(C)CC3)c(F)cc3c(=O)c(C(=O)O)cn1c23.O [LEVOFLOXACIN] | – | – | – | – | – | – | – | – | – | – | – | – | – | – | – | 32 | 32 | 16 | 16 | 16 | –
CN(C)c1cc(NC(=O)CNC(C)(C)C)c(O)c2c1C[C@H]1C[C@H]3[C@H](N(C)C)C(O)=C(C(N)=O)C(=O)[C@@]3(O)C(O)=C1C2=O [TIGECYCLINE] | – | – | – | – | – | – | – | – | – | – | – | – | – | – | – | – | – | – | – | – | Activity (Acinetobacter baumannii [31]): -1.2 log10CFU/g; Activity (Acinetobacter baumannii [32]): 4.2 log10CFU/g
